Data reported in US5366983A, “Use of quaternary ammonium compounds to remove salmonella contamination from meat products” (The Board of Trustees of The University of Arkansas, priority 1992, dated 1994).
“And” between values parts separate entries of the source, which are not always exact repeats. Identical values can stand only once. Like-named read-outs stand apart in the source and are kept apart here.

How the values were obtained:
[1] = tested on: Salmonella typhimurium ATCC 14028 attached to human buccal epithelial cells; assay type: cell-based; settings: Table A-1
Protocol: Studies were conducted on the attachment of Salmonella typhimurium to human buccal epithelial cells using the modified procedure of Boussard et al., International J. Pharmaceutics 53: 253-256 (1989). In this study, the activities of cationic and anionic surfactant compounds as well as certain chelating agents were compared on the detachment of S. typhimurium from epithelial cells.
To this end, bacteria were grown on nutrient agar for 16 hours at 37° C. The cells were suspended in 0.008 M phosphate buffered saline (PBS) at pH 7.2 and washed two times at 4500 rpm for 10 minutes. The last suspension was diluted in PBS to obtain a cell concentration of 0.5 to 1×10^9 cells/ml. Human epithelial cells were obtained by swabbing the buccal surface of a healthy, nonsmoking donor. […] The number of living cells was estimated and the suspension diluted to 0.5 to 1×10^5 cells/ml.
Next, the suspension of the human buccal cells was mixed with an equal volume of the bacterial suspension (3.0 ml), or PBS (0.8 ml). Contact was allowed for 1.5 hours at 35° C. under agitation. The mixtures were then centrifuged for 10 minutes at 4500 rpm. Each suspension, 1.0 ml, was transferred into Eppendorf vials and washed with PBS at 1500 rpm for 10 minutes. After the washing, the cells were treated with 1.0 ml PBS or 1.0 ml of the test chemical solution. Treatment was performed by suspending and vortexing on a low speed for 30 seconds followed by centrifugation at 1500 rpm for 10 minutes.
After the treatment, the cells were washed once with PBS and then 20 μl of erythrosin B was added to each vial. The suspension was centrifuged at 1500 rpm for 10 minutes, and the cells were washed twice under the same conditions. The final pellet was suspended in 300 μl of PBS. This suspension was spread out onto microscope slides and dried overnight at room temperature. After counter staining with methylene blue, the slides were microscopically examined under oil immersion.

[2] = tested on: Salmonella typhimurium ATCC 14028 attached to human buccal epithelial cells; experiment: microbe, parasite or virus in culture; assay type: cell-based; settings: for adherence, mean value of attached bacteria: Table A-3; for EC50: Salmonella enterica, Epithelial cell, read-out: EC50 (±SD), detachment
Protocol: Additional studies on the detachment of Salmonella typhimurium from human buccal epithelial cells were conducted.
S. typhimurium ATCC 14028 was grown in nutrient broth (BBL Microbiology system, Cockeysville, Md.) for 16 hours at 37° C. The cells were centrifuged and washed twice with 0.008 M phosphate buffered saline (PBS, at pH 7.2) at 4500 rpm for 10 minutes. The last suspension was diluted in PBS to obtain a cell concentration 0.5 to 1×10^9 cells/ml using spectrophotometric measurement. Human epithelial cells were obtained by swabbing the buccal surface of a healthy, nonsmoking donor. […] The number of living cells was estimated and the suspension was diluted to 0.5 to 1×10^5 cells/ml.
The suspension of the human buccal cells was mixed with an equal volume of the bacterial suspension (3.0 ml), or PBS (0.8 ml) in 10 ml Erlenmeyer flasks. Contact was allowed for 1.5 hours at 35° C. under agitation. After incubation, 1.0 ml of each suspension was transferred into an Eppendorff vial, centrifuged at 3000 rpm for 10 minutes, and washed with PBS. The cells were treated with 1.0 ml PBS or 1.0 ml of the test chemical solution. Treatment was performed by suspending, gently vortexing, and centrifuging at 1500 rpm for 10 minutes. After the treatment, the cells were washed and placed on microscopic slides for examination.
EC50 represents the inverse measurement of the potency of a compound. EC50 values were determined by a nonlinear regression of the detachment effect versus the cationic surfactant concentration data from Table A-3.

[3] = tested on: Salmonella typhimurium ATCC 14028; experiment: Minimum growth inhibitory concentration, macrodilution; assay type: cell-based; settings: Mueler Hinton broth, macrodilution (NCCLS)
Protocol: Minimum growth inhibitory concentrations (MICs) of quaternary ammonium compounds and Na2 -EDTA for Salmonella were determined using Mueler Hinton broth (BBL Microbiology system, Cockeysville, Md.) and by the macrodilution method established by the National Committee for Clinical Laboratory Standards (NCCLS). Escherichia coli ATCC 25922 and Staphylococcus aureus ATCC 29213 were included in each assay as reference strains.

[4] = tested on: Salmonella typhimurium ATCC 14028; experiment: Effect on viability of Salmonella in suspension (Tables D-1 to D-3); assay type: cell-based; settings: for bacterial viability: Table D-1
Protocol: EC50 values for four of the compounds were calculated from the bactericidal activity of the compounds as a function of molar concentration by a nonlinear regression algorithm.
In addition to the quaternary ammonium compounds, the antimicrobial activities of chelating agents Na2 -EDTA and EGTA were investigated. Na2 -EDTA was purchased from the Sigma Chemical Company (St. Louis, Mo.). Na2 -EDTA was dissolved in 0.04 M PPB prior to the assay and further dilutions were made in the same buffer.
EGTA was purchased from the Aldrich Chemical Company (Milwaukee, Wis.). EGTA was dissolved in 0.04 M PPB according to the procedure described by Harafuji and Ogawa (J. Biochem. 87:1305-1312 (1980)). After heating EGTA for 15 minutes at 80° C., the pH was adjusted to 7.0 by addition of NaOH. EGTA was filter-sterilized using a 0.2 μm Acro disc filter (Gelman Sciences; Ann Arbor, Mich.) prior to the assay. Further dilutions were made in sterile PPB.

[5] = tested on: Salmonella typhimurium on chicken skin; experiment: Effect of surfactants on Salmonella attached to chicken skin, drumsticks (Tables F1-F4); settings: 25° C.
Protocol: The following experiments utilizing chicken legs were conducted to determine the killing potential of a variety of surfactants against Salmonella on the skin and free in solutions. To this end, chicken legs obtained from the Department of Agriculture at the University of Arkansas, Fayetteville, were incubated for thirty minutes at room temperature with a 1:5000 dilution of Salmonella typhimurium. The chicken legs were removed five at a time and then rinsed twice in tap water to remove the unattached and excess Salmonella. The rinse water was sampled, diluted, and then plated onto XLD pour plates. […] The chicken legs were then removed and rinsed twice in tap water to remove the released Salmonella and excess chemicals. Rinses were then sampled, diluted, and then plated onto XLD pour plates.
The chicken legs were then individually washed with 100 ml sterile double distilled water, and then shaken fifty times. Samples of the wash H2 O were diluted and plated onto XLD pour plates. The chicken legs were further swabbed after the washing step above. The swabs were then plated onto the XLD plates. A set of wash samples were enriched with TT Broth Base Hajna and then plated onto XLD plates.
All of the samples were plated in 1 ml aliquots onto XLD pour plates. A positive control sample incubated in sterile double distilled water at 4° C. was run for each of the aforementioned conditions. Treatments occurred at both 4° C. and 25° C. The data is reported as the mean number of CFU/ml. The ratio in the table represents the number of chicken legs out of a sample of ten chicken legs producing the notated number of colonies, as indicated by the +, ++, +++, or ++++.

CCCCCCCCCCCC[n+]1ccccc1 [DPC, dodecylpyridinium chloride]
adherence, mean value of attached bacteria ([1]; 10 ug/ml): 70 ± 35
adherence, mean value of attached bacteria ([1]; 25 ug/ml): 55 ± 23
adherence, mean value of attached bacteria ([1]; 50 ug/ml): 46 ± 28
adherence, mean value of attached bacteria ([1]; 75 ug/ml): 34 ± 20
adherence, mean value of attached bacteria ([1]; 100 ug/ml): 34 ± 18
adherence, mean value of attached bacteria ([1]; 500 ug/ml): 14 ± 10
adherence, mean value of attached bacteria ([2]; 100 ug/ml): 129 ± 87
adherence, mean value of attached bacteria ([2]; 150 ug/ml): 141 ± 66
adherence, mean value of attached bacteria ([2]; 175 ug/ml): 110 ± 73
adherence, mean value of attached bacteria ([2]; 250 ug/ml): 62 ± 50
adherence, mean value of attached bacteria ([2]; 300 ug/ml): 61 ± 34
adherence, mean value of attached bacteria ([2]; 450 ug/ml): 54 ± 23
EC50 [2]: 716 ± 63 µM
MIC ([3]; Salmonella enterica, read-out: MIC): 80 µg/mL
bacterial viability ([4]; 10 ug/ml): 1.39 ± 0.34 × 10^9 CFU/ml
bacterial viability ([4]; 100 ug/ml): 9.8 ± 2.17 × 10^8 CFU/ml and 8.85 ± 0.3 × 10^8 CFU/ml
bacterial viability ([4]; 200 ug/ml): < 10^5 CFU/ml
bacterial viability ([4]; 400 ug/ml): 0 CFU/ml
bacterial viability ([4]; 1000 ug/ml): 0 CFU/ml
Enrichment, chicken legs out of ten ([5]; 0.1%): 8/10
Rinse H2O ([5]; 0.1%): 0 CFU/ml
Surfactant Solution ([5]; 0.1%): 0 CFU/ml
Swabs, chicken legs producing the notated number of colonies ([5]; 0.1%): 0/10
Wash H2O, chicken legs producing the notated number of colonies ([5]; 0.1%): 7/10
Wash H2O, colonies ([5]; 0.1%): ++ (11-100)
Enrichment, chicken legs out of ten ([5]; 1.0%): 0/10
Rinse H2O ([5]; 1.0%): 0 CFU/ml
Surfactant Solution ([5]; 1.0%): 0 CFU/ml
Swabs, chicken legs producing the notated number of colonies ([5]; 1.0%): 0/10
Wash H2O, colonies ([5]; 1.0%): 0 CFU/ml
Enrichment, chicken legs out of ten ([5]; .01%): 10/10
Rinse H2O ([5]; .01%): + (1-10)
Surfactant Solution ([5]; .01%): 0 CFU/ml
Swabs, chicken legs producing the notated number of colonies ([5]; .01%): 6/10
Swabs, colonies ([5]; .01%): + (1-10)
Wash H2O, chicken legs producing the notated number of colonies ([5]; .01%): 10/10
Wash H2O, colonies ([5]; .01%): ++ (11-100)

CCCCCCCCCCCCCCCC[N+](C)(C)C.[Br-] [HTMAB, hexadecyltrimethylammonium bromide]
adherence, mean value of attached bacteria ([1]; 5 ug/ml): 49 ± 21
adherence, mean value of attached bacteria ([1]; 50 ug/ml): 48 ± 20
cytotoxicity to buccal epithelial cells ([1]; 500 ug/ml): cytotoxic
adherence, mean value of attached bacteria ([2]; 100 ug/ml): 82 ± 35
adherence, mean value of attached bacteria ([2]; 175 ug/ml): 57 ± 33
adherence, mean value of attached bacteria ([2]; 250 ug/ml): 33 ± 19
EC50 [2]: 333 ± 14 µM
MIC [3]: 60 µg/mL
MIC ([3]; Salmonella enterica): 64 µg/mL
bacterial viability ([4]; 10 ug/ml): 1.06 ± 0.08 × 10^9 CFU/ml and 1.67 ± 0.12 × 10^9 CFU/ml
bacterial viability ([4]; 20 ug/ml): 3.23 ± 0.38 × 10^8 CFU/ml and 6.35 ± 1.03 × 10^8 CFU/ml
EC50 ([4]; Salmonella enterica, read-out: EC50 (±SD), effect on viability in suspension): 48 ± 0.03 µM
Enrichment, chicken legs out of ten ([5]; 0.1%): 5/10
Rinse H2O ([5]; 0.1%): + (1-10)
Surfactant Solution ([5]; 0.1%): 0 CFU/ml
Swabs, chicken legs producing the notated number of colonies ([5]; 0.1%): 6/10
Swabs, colonies ([5]; 0.1%): + (1-10)
Wash H2O, colonies ([5]; 0.1%): 0 CFU/ml
Enrichment, chicken legs out of ten ([5]; 1.0%): 0/10
Rinse H2O ([5]; 1.0%): 0 CFU/ml
Surfactant Solution ([5]; 1.0%): 0 CFU/ml
Swabs, chicken legs producing the notated number of colonies ([5]; 1.0%): 3/10
Swabs, colonies ([5]; 1.0%): + (1-10)
Wash H2O, colonies ([5]; 1.0%): 0 CFU/ml
Enrichment, chicken legs out of ten ([5]; .01%): 5/10
Rinse H2O ([5]; .01%): + (1-10)
Surfactant Solution ([5]; .01%): 0 CFU/ml
Swabs, chicken legs producing the notated number of colonies ([5]; .01%): 9/10
Swabs, colonies ([5]; .01%): + (1-10)
Wash H2O, chicken legs producing the notated number of colonies ([5]; .01%): 10/10
Wash H2O, colonies ([5]; .01%): ++ (11-100)
